Marks after values point to notes of the source that are not given here.
Tested on: chicken embryos
Test: Metabolic profiling of allantoic fluid (GC-MS, LC-MS, OPLS-DA)
Type: in vivo, Gallus gallus domesticus
Settings: for Mean concentration relative to control, feature Win004_C08 / Mean concentration relative to control, feature Win005_C07 / Mean concentration relative to control, feature Win008_C06 / Mean concentration relative to control, feature Win022_C01 / Mean concentration relative to control, feature Win023_C06 / Mean concentration relative to control, feature win006_C01 / Mean concentration relative to control, feature Win008_C07 / Mean concentration relative to control, feature Win023_C03 / Mean concentration relative to control, feature Win007_C09 / Mean concentration relative to control, feature Win008_C05 / Mean concentration relative to control, feature Win018_C04 / Mean concentration relative to control, feature Win007_C03 / Mean concentration relative to control, feature Win042_C02 / Mean concentration relative to control, feature Win009_C03 / Mean concentration relative to control, feature Win008_C04 / Mean concentration relative to control, feature Win005_C03 / Mean concentration relative to control, feature Win013_C05: GC; for Mean concentration relative to control, feature Win008_C07: tentative 1-Aminocyclopropanecarboxylic acid; for Mean concentration relative to control, feature Win023_C03: tentative 2-Oxoglutaric acid; for Mean concentration relative to control, feature Win007_C09 / Mean concentration relative to control, feature Win008_C05: tentative 2-Oxovaleric acid; for Mean concentration relative to control, feature Win018_C04: tentative 3-Amino-2-piperidone; for Mean concentration relative to control, feature Win007_C03: tentative 3-Hydroxybutanoic acid; for Mean concentration relative to control, feature Win042_C02: tentative Cystathionine; for Mean concentration relative to control, feature Win009_C03: tentative Ketoleucine; for Mean concentration relative to control, feature Win008_C04: tentative Malonic acid; for Mean concentration relative to control, feature Win005_C03: tentative Oxalic acid; for Mean concentration relative to control, feature Win013_C05: tentative Succinic acid
Method: Controls were injected with 20 μL vehicle only (DMSO).
Plasma was collected and stored at -70°C.
Metabolites in allantoic fluid and blood plasma were analyzed using gas chromatography-mass spectrometry (GC-MS) and liquid chromatography-mass spectrometry (LC-MS) as described in S1 Methods. Prior to GC-MS and LC-MS analysis, allantoic fluid (100 μL) and blood plasma (50 μL) were extracted. To each sample, 900 μL (allantoic fluid) or 450 μL (blood plasma) of extraction buffer (90/10 v/v methanol:water) including all internal standards were added. Standards for GC-MS were proline, succinic acid, glutamic acid, salicylic acid, alpha-ketoglutarate, putrescine, myristic acid, hexadecanoic acid, cholesterol, and sucrose. Standards for LC-MS were Val-Tyr-Val, Leu-enkephalin, sulfadimethoxine and reserpine. Samples were homogenized by shaking in a bead mill at a frequency of 30 Hz for 3 minutes and proteins were precipitated at +4°C on ice. The samples were centrifuged at +4°C, 14000 rpm, for 10 min. Then, 200 μL supernatant was transferred to a GC microvial and 200 μL was transferred to an LC microvial, and solvents were evaporated. Samples from the four replicate experiments were analyzed using in chronological order and within each replicate experiment the run order of the individual samples was randomized.
Multivariate statistical analyses of metabolite profiles were performed using the software package SIMCA-P version 13.0 (Umetrics, Umeå, Sweden). Data was centered and scaled to variance 1 (UV scaling) prior to modelling. To reduce unintended systematic variation caused by sample processing and instrument drift, GC-MS and LC-MS metabolite amounts (expressed as the area under the chromatographic peak) were normalized by Orthogonal Partial Least Squares analysis (O2PLS) prior to multivariate data analysis. O2PLS finds common (predictive) and unique (orthogonal) variation in two data matrices. If applied to find the common variation between the data matrix containing the measured metabolite concentrations and a matrix containing only the internal standards, the only common (predictive) variation expected is due to the unintended systematic variation. By deleting the contribution of the predictive latent variables, that variation can be removed from the data. Models obtained after this normalization contain in general less latent variables, and this simplification helps when deciding on the number of latent variables to be used. Following normalization, GC-MS and LC-MS data were analyzed together. Initially, a global Principal Component Analysis (PCA) was performed to get an overview of groups and trends and to identify outliers. Projections to latent structures by means of Orthogonal Partial Least Squares Discriminant Analysis (OPLS-DA) was used to model the relationship between the X-matrix (metabolite concentrations) and the Y matrix (class, i.e. exposure group or sex), and to find x-variables that were related to class belonging. OPLS-DA is a supervised prediction and regression method that rotates the projection plane to find the maximum covariance between the data and the class assignment. All groups were first analyzed together in a 5-class OPLS-DA and then each exposure group was analyzed against the control group in a 2-class OPLS-DA. Sex differences were analyzed both using the whole data set and in each group separately using 2-class OPLS-DA, with females and males as the two classes. Only variables with 80% or more nonzero values were included in the statistical models. […] The validity of each model was also checked using CV-ANOVA (ANOVA of the cross-validated residuals). A significance level of p < 0.05 was used. For each model, R ^2 X, R ^2 Y and Q ^2 values were calculated, where R ^2 X is a measure of the fraction of x variation modeled in the extracted latent variables, R ^2 Y is a measure of the fraction of y variation modeled and Q ^2 is an estimate of the predictive ability of the model and is calculated by cross-validation. […]

O=C(O)C(F)(F)C(F)(F)C(F)(F)C(F)(F)C(F)(F)C(F)(F)C(F)(F)F [PFOA, perfluorooctanoic acid]
Mean concentration relative to control, feature Win004_C08 (PFOA 50 μg/egg): 1.0
Mean concentration relative to control, feature Win005_C07 (PFOA 50 μg/egg): 1.0
Mean concentration relative to control, feature Win008_C06 (PFOA 50 μg/egg): 1.0
Mean concentration relative to control, feature Win022_C01 (PFOA 50 μg/egg): 1.0
Mean concentration relative to control, feature Win023_C06 (PFOA 50 μg/egg): 0.8
Mean concentration relative to control, feature win006_C01 (PFOA 50 μg/egg): 1.0
Mean concentration relative to control, feature Win008_C07 (PFOA 50 μg/egg): 1.1
Mean concentration relative to control, feature Win023_C03 (PFOA 50 μg/egg): 1.0
Mean concentration relative to control, feature Win007_C09 (PFOA 50 μg/egg): 1.0
Mean concentration relative to control, feature Win008_C05 (PFOA 50 μg/egg): 1.0
Mean concentration relative to control, feature Win018_C04 (PFOA 50 μg/egg): 1.0
Mean concentration relative to control, feature Win007_C03 (PFOA 50 μg/egg): 1.0
Mean concentration relative to control, feature Win042_C02 (PFOA 50 μg/egg): 1.1
Mean concentration relative to control, feature Win009_C03 (PFOA 50 μg/egg): 0.9
Mean concentration relative to control, feature Win008_C04 (PFOA 50 μg/egg): 1.1
Mean concentration relative to control, feature Win005_C03 (PFOA 50 μg/egg): 0.9
Mean concentration relative to control, feature Win013_C05 (PFOA 50 μg/egg): 1.0
Mean concentration relative to control, feature Win004_C08 (PFOA 250 μg/egg): 1.0
Mean concentration relative to control, feature Win005_C07 (PFOA 250 μg/egg): 1.0
Mean concentration relative to control, feature Win008_C06 (PFOA 250 μg/egg): 1.2
Mean concentration relative to control, feature Win022_C01 (PFOA 250 μg/egg): 1.1
Mean concentration relative to control, feature Win023_C06 (PFOA 250 μg/egg): 1.1
Mean concentration relative to control, feature win006_C01 (PFOA 250 μg/egg): 1.0
Mean concentration relative to control, feature Win008_C07 (PFOA 250 μg/egg): 1.0
Mean concentration relative to control, feature Win023_C03 (PFOA 250 μg/egg): 1.1
Mean concentration relative to control, feature Win007_C09 (PFOA 250 μg/egg): 1.0
Mean concentration relative to control, feature Win008_C05 (PFOA 250 μg/egg): 1.0
Mean concentration relative to control, feature Win018_C04 (PFOA 250 μg/egg): 1.1
Mean concentration relative to control, feature Win007_C03 (PFOA 250 μg/egg): 1.0
Mean concentration relative to control, feature Win042_C02 (PFOA 250 μg/egg): 1.3
Mean concentration relative to control, feature Win009_C03 (PFOA 250 μg/egg): 1.0
Mean concentration relative to control, feature Win008_C04 (PFOA 250 μg/egg): 1.1
Mean concentration relative to control, feature Win005_C03 (PFOA 250 μg/egg): 0.9
Mean concentration relative to control, feature Win013_C05 (PFOA 250 μg/egg): 1.1
Mean concentration relative to control, feature 134.0239@1.1350567 (LC, PFOA 50 μg/egg): 1.2
Mean concentration relative to control, feature 145.0538@3.072527 (LC, PFOA 50 μg/egg): 1.0
Mean concentration relative to control, feature 147.0328@3.0722888 (LC, PFOA 50 μg/egg): 1.0
Mean concentration relative to control, feature 160.0323@1.1950632 (LC, PFOA 50 μg/egg): 1.0
Mean concentration relative to control, feature 173.0488@3.0734746 (LC, PFOA 50 μg/egg): 1.0
Mean concentration relative to control, feature 176.0952@1.3890611 (LC, PFOA 50 μg/egg): 0.6*
Mean concentration relative to control, feature 178.0428@1.7582192 (LC, PFOA 50 μg/egg): 0.9
Mean concentration relative to control, feature 180.0048@4.421465 (LC, PFOA 50 μg/egg): 1.0
Mean concentration relative to control, feature 189.1159@1.9209185 (LC, PFOA 50 μg/egg): 0.9
Mean concentration relative to control, feature 197.0639@2.1181405 (LC, PFOA 50 μg/egg): 1.0
Mean concentration relative to control, feature 201.012@3.046474 (LC, PFOA 50 μg/egg): 1.0
Mean concentration relative to control, feature 202.0429@2.9548414 (LC, PFOA 50 μg/egg): 1.0
Mean concentration relative to control, feature 205.0533@4.421879 (LC, PFOA 50 μg/egg): 1.0
Mean concentration relative to control, feature 214.016@2.1190732 (LC, PFOA 50 μg/egg): 1.1
Mean concentration relative to control, feature 226.0107@4.421457 (LC, PFOA 50 μg/egg): 1.0
Mean concentration relative to control, feature 236.0816@3.0720985 (LC, PFOA 50 μg/egg): 1.0
Mean concentration relative to control, feature 241.0551@2.3510706 (LC, PFOA 50 μg/egg): 0.9
Mean concentration relative to control, feature 243.1118@2.1537287 (LC, PFOA 50 μg/egg): 1.0
Mean concentration relative to control, feature 244.9972@4.421603 (LC, PFOA 50 μg/egg): 1.0
Mean concentration relative to control, feature 245.1563@2.2907295 (LC, PFOA 50 μg/egg): 0.8*
Mean concentration relative to control, feature 250.0981@3.072492 (LC, PFOA 50 μg/egg): 1.0
Mean concentration relative to control, feature 262.0978@2.7961144 (LC, PFOA 50 μg/egg): 1.0
Mean concentration relative to control, feature 263.0855@2.2847009 (LC, PFOA 50 μg/egg): 1.0
Mean concentration relative to control, feature 270.0441@1.1407775 (LC, PFOA 50 μg/egg): 0.8
Mean concentration relative to control, feature 278.0928@3.0723689 (LC, PFOA 50 μg/egg): 1.0
Mean concentration relative to control, feature 279.1248@2.796395 (LC, PFOA 50 μg/egg): 1.0
Mean concentration relative to control, feature 280.1425@2.730277 (LC, PFOA 50 μg/egg): 1.0
Mean concentration relative to control, feature 288.1166@2.9551322 (LC, PFOA 50 μg/egg): 1.1
Mean concentration relative to control, feature 289.1012@3.249983 (LC, PFOA 50 μg/egg): 1.0
Mean concentration relative to control, feature 289.173@7.5030584 (LC, PFOA 50 μg/egg): 1.1
Mean concentration relative to control, feature 294.1242@2.3692534 (LC, PFOA 50 μg/egg): 1.0
Mean concentration relative to control, feature 302.0508@3.0722616 (LC, PFOA 50 μg/egg): 1.0
Mean concentration relative to control, feature 305.1682@5.353517 (LC, PFOA 50 μg/egg): 0.8*
Mean concentration relative to control, feature 305.1684@5.2955093 (LC, PFOA 50 μg/egg): 0.8
Mean concentration relative to control, feature 308.073@4.4211636 (LC, PFOA 50 μg/egg): 1.0
Mean concentration relative to control, feature 310.1181@1.5090439 (LC, PFOA 50 μg/egg): 1.0
Mean concentration relative to control, feature 316.0389@3.0725708 (LC, PFOA 50 μg/egg): 1.0
Mean concentration relative to control, feature 320.0626@3.0729218 (LC, PFOA 50 μg/egg): 1.0
Mean concentration relative to control, feature 325.1114@2.1190624 (LC, PFOA 50 μg/egg): 0.9
Mean concentration relative to control, feature 325.1115@2.3554378 (LC, PFOA 50 μg/egg): 0.9
Mean concentration relative to control, feature 333.1335@2.8639288 (LC, PFOA 50 μg/egg): 0.9
Mean concentration relative to control, feature 333.2005@6.5291867 (LC, PFOA 50 μg/egg): 0.9
Mean concentration relative to control, feature 335.1866@4.508565 (LC, PFOA 50 μg/egg): 1.0
Mean concentration relative to control, feature 337.1651@1.8737898 (LC, PFOA 50 μg/egg): 0.9
Mean concentration relative to control, feature 344.1424@2.348947 (LC, PFOA 50 μg/egg): 0.9
Mean concentration relative to control, feature 348.0553@3.0730357 (LC, PFOA 50 μg/egg): 1.0
Mean concentration relative to control, feature 349.1651@2.4087605 (LC, PFOA 50 μg/egg): 0.9
Mean concentration relative to control, feature 357.1997@6.9691257 (LC, PFOA 50 μg/egg): 0.9
Mean concentration relative to control, feature 371.1513@3.0009465 (LC, PFOA 50 μg/egg): 1.0
Mean concentration relative to control, feature 375.1819@3.672254 (LC, PFOA 50 μg/egg): 0.9
Mean concentration relative to control, feature 394.167@3.9552917 (LC, PFOA 50 μg/egg): 0.8
Mean concentration relative to control, feature 414.1482@2.118972 (LC, PFOA 50 μg/egg): 1.0

— PMC4666608, “Metabolic Profiling of Chicken Embryos Exposed to Perfluorooctanoic Acid (PFOA) and Agonists to Peroxisome Proliferator-Activated Receptors” (PLoS ONE, 2015)
